Results published in US9290451B2 (Hoffmann-La Roche Inc., priority 2011, dated 2016).
Read-outs that look alike come from different tables or passages of the source.

Columns and labels:
[1] = target: human CB2 receptors (Homo sapiens (Human), UniProt P34972); assay: cAMP assay, CHO cells expressing human CB2 receptors; assay type: cell-based
Method in brief: (§1)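 EC50 values come from a TR-FRET cAMP read-out (standard curve 10 μM–0.13 nM cAMP) after 30 min compound exposure at 30 °C in IBMX (1 mM)-containing Krebs Ringer bicarbonate buffer, using CHO cells carrying human CB1 or CB2 receptors.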

[2] = target: human CB1 receptors (Homo sapiens (Human), UniProt P21554); assay: cAMP assay, CHO cells expressing human CB1 receptors; assay type: cell-based
Method in brief: as §1

[3] = CHO cells expressing human CB2, cAMP, read-out: human CB2 EC50
[4] = CHO cells expressing human CB1, cAMP, read-out: human CB1 EC50

Chain of human CB1 receptors (P21554 whole entry): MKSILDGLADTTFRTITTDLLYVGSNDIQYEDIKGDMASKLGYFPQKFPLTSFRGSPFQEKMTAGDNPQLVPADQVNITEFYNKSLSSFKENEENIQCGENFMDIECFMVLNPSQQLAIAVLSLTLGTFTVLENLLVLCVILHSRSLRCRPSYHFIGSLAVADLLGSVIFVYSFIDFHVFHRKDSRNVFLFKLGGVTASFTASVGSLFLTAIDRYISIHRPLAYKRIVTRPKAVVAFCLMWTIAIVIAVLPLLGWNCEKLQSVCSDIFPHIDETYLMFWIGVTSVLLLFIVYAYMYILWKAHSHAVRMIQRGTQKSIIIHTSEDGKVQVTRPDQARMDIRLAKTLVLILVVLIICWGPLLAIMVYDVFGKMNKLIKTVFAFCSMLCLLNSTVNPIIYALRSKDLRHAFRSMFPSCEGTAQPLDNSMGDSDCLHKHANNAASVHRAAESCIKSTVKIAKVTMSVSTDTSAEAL
Chain of human CB2 receptors (P34972 whole entry): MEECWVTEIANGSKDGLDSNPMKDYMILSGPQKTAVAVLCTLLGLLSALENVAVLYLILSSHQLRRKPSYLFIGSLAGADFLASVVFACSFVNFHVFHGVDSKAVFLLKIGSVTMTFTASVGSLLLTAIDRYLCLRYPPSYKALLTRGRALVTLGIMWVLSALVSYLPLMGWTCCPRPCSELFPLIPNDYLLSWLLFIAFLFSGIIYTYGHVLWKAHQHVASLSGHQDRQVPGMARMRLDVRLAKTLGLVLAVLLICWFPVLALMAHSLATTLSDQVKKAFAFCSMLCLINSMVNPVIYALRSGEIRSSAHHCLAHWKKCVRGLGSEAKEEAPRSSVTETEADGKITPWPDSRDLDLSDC

Row | SMILES | EC50 [1, 3] | EC50 [2, 4] | EC50 [1] | EC50 [2]
1 | Cc1cc(C(C)(C)NC(=O)c2cccc(-c3cccc(Cl)c3)n2)on1 [Example 28, 6-(3-Chloro-phenyl)-pyridine-2-carboxylic acid [1-methyl-1-(3-methyl-isoxazol-5-yl)-ethyl]-amide] | 0.564 µM | > 10 µM |  | 
2 | CC(C)(NC(=O)c1cccc(-c2cccc(Cl)c2)n1)c1nnco1 [Example 17, 6-(3-Chloro-phenyl)-pyridine-2-carboxylic acid (1-methyl-1-[1,3,4]oxadiazol-2-yl-ethyl)-amide] | 0.566 µM | > 10 µM |  | 
3 | CC(C)C[C@H](NC(=O)c1ccc(C2CC2)c(Cc2ccc(F)cc2)n1)C(=O)O [Example 336, (S)-2-{[5-Cyclopropyl-6-(4-fluoro-benzyl)-pyridine-2-carbonyl]-amino}-4-methyl-pentanoic acid] | 0.239 µM | > 10 µM |  | 
4 | CC(C)C[C@H](NC(=O)c1ccc(C2CC2)c(OCc2ccccn2)n1)C(N)=O [Example 200, (S)-N-(1-Amino-4-methyl-1-oxopentan-2-yl)-5-cyclopropyl-6-(pyridin-2-ylmethoxy)picolinamide] | 0.0233 µM | > 10 µM |  | 
5 | CC(C)(NC(=O)c1ccc(C2CC2)c(-c2cccc(Cl)c2)n1)c1nccs1 [Example 116, 6-(3-Chloro-phenyl)-5-cyclopropyl-pyridine-2-carboxylic acid (1-methyl-1-thiazol-2-yl-ethyl)-amide] |  |  | 0.0859 µM | 1.45 µM
6 | CNC(=O)[C@H](CC(C)(C)C)NC(=O)c1cccc(-c2cccc(Cl)c2)n1 [Example 193, (S)-6-(3-Chlorophenyl)-N-(4,4-dimethyl-1-(methylamino)-1-oxopentan-2-yl)picolinamide] | 0.0994 µM | > 10 µM |  | 
7 | Cc1nc(C(C)(C)NC(=O)c2ccc(N3CC(F)(F)C3)c(OCC3CC3)n2)no1 [Example 102, 6-Cyclopropylmethoxy-5-(3,3-difluoro-azetidin-1-yl)-pyridine-2-carboxylic acid [1-methyl-1-(5-methyl-[1,2,4]oxadiazol-3-yl)-ethyl]-amide] | 0.0627 µM | > 10 µM |  | 
8 | NC(=O)C1(NC(=O)c2ccc(C3CC3)c(OCC3CC3)n2)CCOCC1 [Example 180, 5-Cyclopropyl-6-cyclopropylmethoxy-pyridine-2-carboxylic acid (4-carbamoyl-tetrahydro-pyran-4-yl)-amide] | 0.423 µM | > 10 µM |  | 
9 | CC(C)(NC(=O)c1ccc(C2CCOC2)c(-c2cccc(Cl)c2)n1)c1nccs1 (stereo not shown) [Example 101, 6-(3-Chloro-phenyl)-5-(tetrahydro-furan-3-yl)-pyridine-2-carboxylic acid (1-methyl-1-thiazol-2-yl-ethyl)-amide] | 0.102 µM | > 10 µM |  | 
10 | CC1(COc2nc(C(=O)NC(C)(C)c3nccs3)ccc2N2CC(F)(F)C2)COC1 [Example 295, 5-(3,3-Difluoro-azetidin-1-yl)-6-(3-methyl-oxetan-3-ylmethoxy)-pyridine-2-carboxylic acid (1-methyl-1-thiazol-2-yl-ethyl)-amide] | 0.259 µM | > 10 µM |  | 
11 | CC(C)(NC(=O)c1cccc(-c2cccc(Cl)c2)n1)c1ncon1 [Example 72, 6-(3-Chloro-phenyl)-pyridine-2-carboxylic acid (1-methyl-1-[1,2,4]oxadiazol-3-yl-ethyl)-amide] | 0.0328 µM | > 10 µM |  | 
12 | COc1ccc(C(=O)NC(C)(C)c2noc(C)n2)nc1-c1cccc(Cl)c1 [Example 89, 6-(3-Chloro-phenyl)-5-methoxy-pyridine-2-carboxylic acid [1-methyl-1-(5-methyl-[1,2,4]oxadiazol-3-yl)-ethyl]-amide] | 0.119 µM | 1.36 µM |  | 
13 | CCC(CC)(NC(=O)c1cccc(-c2ccc(Cl)cc2)n1)C(=O)NC [Example 76, 6-(4-Chloro-phenyl)-pyridine-2-carboxylic acid (1-ethyl-1-methylcarbamoyl-propyl)-amide] | 0.185 µM | > 10 µM |  | 
14 | COc1ccc(C(=O)NC(C)(C)c2ncco2)nc1-c1cccc(Cl)c1 [Example 90, 6-(3-Chloro-phenyl)-5-methoxy-pyridine-2-carboxylic acid (1-methyl-1-oxazol-2-yl-ethyl)-amide] | 0.217 µM | > 10 µM |  | 
15 | CCC(CC)(NC(=O)c1ccc(C2CC2)c(OCC2CC2)n1)C(=O)N1CC(F)(F)C1 [Example 287, 5-Cyclopropyl-6-cyclopropylmethoxy-pyridine-2-carboxylic acid [1-(3,3-difluoro-azetidine-1-carbonyl)-1-ethyl-propyl]-amide] | 0.0036 µM | > 10 µM |  | 
16 | CC(C)C[C@H](NC(=O)c1ccc(Br)c(Oc2ccc(F)cc2)n1)C(N)=O [Example 177, 5-Bromo-6-(4-fluoro-phenoxy)-pyridine-2-carboxylic acid ((S)-1-carbamoyl-3-methyl-butyl)-amide] | 0.196 µM | > 10 µM |  | 

Row | SMILES | EC50 [1, 3] | EC50 [2, 4] | EC50 [1] | EC50 [2]
17 | CC(C)(NC(=O)c1ccc(N2CCCC2=O)c(OCC2CC2)n1)c1ncco1 [Example 61, 6-Cyclopropylmethoxy-5-(2-oxo-pyrrolidin-1-yl)-pyridine-2-carboxylic acid (1-methyl-1-oxazol-2-yl-ethyl)-amide] | 1.48 µM | > 10 µM |  | 
18 | O=C(NNC1CCS(=O)(=O)C1)c1cccc(Cc2ccc(F)cc2)n1 (stereo not shown) [Example 308, 6-(4-Fluoro-benzyl)-pyridine-2-carboxylic acid N′-(1,1-dioxo-tetrahydro-1λ^6-thiophen-3-yl)-hydrazide] | 0.58 µM | > 10 µM |  | 
19 | Cc1nc(C(C)(C)NC(=O)c2cccc(-c3ccc(Cl)cc3)n2)no1 [Example 3, 6-(4-Chloro-phenyl)-pyridine-2-carboxylic acid [1-methyl-1-(5-methyl-[1,2,4]oxadiazol-3-yl)-ethyl]-amide] | 0.341 µM | > 10 µM |  | 
20 | O=C(N[C@@H](CC1CC1)c1nccs1)c1ccc(C2CC2)c(OCC2CC2)n1 [Example 99, 5-Cyclopropyl-6-cyclopropylmethoxy-pyridine-2-carboxylic acid ((S)-2-cyclopropyl-1-thiazol-2-yl-ethyl)-amide] | 0.0597 µM | > 10 µM |  | 
21 | CC(C)(C)C(NC(=O)c1ccc(C2CC2)c(OCC2CC2)n1)C(N)=O (stereo not shown) [Example 179, N-(1-Amino-3,3-dimethyl-1-oxobutan-2-yl)-5-cyclopropyl-6-(cyclopropylmethoxy)picolinamide] | 0.0038 µM | 0.514 µM |  | 
22 | NC(=O)[C@H](CC1CC1)NC(=O)c1ccc(N2CCC(F)(F)C2)c(OCC2CC2)n1 [Example 112, 6-Cyclopropylmethoxy-5-(3,3-difluoro-pyrrolidin-1-yl)-pyridine-2-carboxylic acid ((S)-1-carbamoyl-2-cyclopropyl-ethyl)-amide] | 0.0154 µM | > 10 µM |  | 
23 | Cc1ccc(C(=O)N[C@@H](CC2CC2)c2nccs2)nc1OCC1CC1 [Example 65, 6-Cyclopropylmethoxy-5-methyl-pyridine-2-carboxylic acid ((S)-2-cyclopropyl-1-thiazol-2-yl-ethyl)-amide] | 0.0338 µM | > 10 µM |  | 
24 | CC(C)C[C@H](NC(=O)c1cccc(S(=O)(=O)CC(C)C)n1)C(N)=O [Example 330, 6-(2-Methyl-propane-1-sulfonyl)-pyridine-2-carboxylic acid ((S)-1-carbamoyl-3-methyl-butyl)-amide] | 0.869 µM | > 10 µM |  | 
25 | NC(=O)[C@H](CC1CC1)NC(=O)c1ccc(C2CC2)c(Cc2ccc(F)cc2)n1 [Example 326, 5-Cyclopropyl-6-(4-fluoro-benzyl)-pyridine-2-carboxylic acid ((S)-1-carbamoyl-2-cyclopropyl-ethyl)-amide] | 0.0002 µM | 0.059 µM |  | 
26 | CC(C)(NC(=O)c1ccc(C2CCCO2)c(-c2cccc(Cl)c2)n1)c1nccs1 (stereo not shown) [Example 127, 6-(3-Chloro-phenyl)-5-(tetrahydro-furan-2-yl)-pyridine-2-carboxylic acid (1-methyl-1-thiazol-2-yl-ethyl)-amide] | 0.224 µM | > 10 µM |  | 
27 | CNC(=O)[C@H](CC(C)(C)C)NC(=O)c1ccc(C2CC2)c(OCC2CCCO2)n1 (stereo partly drawn) [Example 185, 5-Cyclopropyl-N-((S)-4,4-dimethyl-1-(methylamino)-1-oxopentan-2-yl)-6-((tetrahydrofuran-2-yl)methoxy)picolinamide] | 0.0075 µM | > 10 µM |  | 
28 | Cc1nc(C(C)(C)NC(=O)c2ccc(C3CC3)c(-c3cccc(Cl)c3)n2)no1 [Example 96, 6-(3-Chloro-phenyl)-5-cyclopropyl-pyridine-2-carboxylic acid [1-methyl-1-(5-methyl-[1,2,4]oxadiazol-3-yl)-ethyl]-amide] | 0.0958 µM | 1.44 µM |  | 
29 | NC(=O)[C@H](CC1CC1)NC(=O)c1ccc(C2CCOC2)c(OCC2CC2)n1 (stereo partly drawn) [Example 136, 6-Cyclopropylmethoxy-5-(tetrahydro-furan-3-yl)-pyridine-2-carboxylic acid ((S)-1-carbamoyl-2-cyclopropyl-ethyl)-amide] | 0.0654 µM | > 10 µM |  | 
30 | CC1(C)CCc2ccc(C(=O)NC(C)(C)CO)nc2C1 [Example 145, N-(1-hydroxy-2-methylpropan-2-yl)-7,7-dimethyl-5,6,7,8-tetrahydroquinoline-2-carboxamide] | 0.289 µM | > 10 µM |  | 
31 | O=C(N[C@H](c1ccccn1)C(F)(F)F)c1cccc(Cc2ccc(F)cc2)n1 [Example 278, 6-(4-Fluoro-benzyl)-pyridine-2-carboxylic acid ((R)-2,2,2-trifluoro-1-pyridin-2-yl-ethyl)-amide] | 0.0202 µM | 0.357 µM |  | 
32 | CNC(=O)[C@@H](NC(=O)c1cccc(-c2cccc(F)c2)n1)C(C)(C)C [Example 213, (S)-N-(3,3-Dimethyl-1-(methylamino)-1-oxobutan-2-yl)-6-(3-fluorophenyl)picolinamide] | 0.0128 µM | 0.361 µM |  | 
